This is an account of results in patent US11708348B2, “Protease inhibitors for treatment of coronavirus infections” (The Scripps Research Institute, priority 2021, dated 2023).

In one assay the test system is SARS-CoV-2 strain USA-WA1/2020. Kind of assay: microbe, parasite or virus in culture. The class given is cell-based. To be noted: Severe acute respiratory syndrome coronavirus 2, HeLa-ACE2, 24 h, HeLa-ACE2 cells, SARS-CoV-2 infection, 24 h; bound printed in cell; read-out: EC50, uM (Hela).
On to `O=C1NCC[C@H]1C[C@@H](NC(=O)[C@@H]1C[C@H]2C[C@H]2N1C(=O)[C@@H]1CCCO1)C(=O)COC(F)(F)F` [Compound 326, (1R,3S,5R)-N-(3-oxo-1-((S)-2-oxopyrrolidin-3-yl)-4-(trifluoromethoxy)butan-2-yl)-2-((S)-tetrahydrofuran-2-carbonyl)-2-azabicyclo[3.1.0]-hexane-3-carboxamide], for which the EC50 was more than 1 µM.

Still in this assay, the particulars now being: Severe acute respiratory syndrome coronavirus 2, HeLa-ACE2, 24 h, HeLa-ACE2 cells, SARS-CoV-2 infection, 24 h; class symbols; read-out: EC50, uM (Hela).
Regarding `CC(C)C[C@H](NC(=O)C1OCCC1(F)F)C(=O)N[C@@H](C[C@@H]1CCNC1=O)C(=O)COC(F)(F)F` (stereo partly drawn) [Compound 324, 3,3-difluoro-N-((S)-4-methyl-1-oxo-1-(((S)-3-oxo-1-((S)-2-oxopyrrolidin-3-yl)-4-(trifluoromethoxy)butan-2-yl)amino)pentan-2-yl)tetrahydrofuran-2-carboxamide], the EC50 was in the range of 0.05 to 0.2 µM. On the same count and under the same terms, under `CC(C)(C)NC(=O)O[C@@H](C(=O)N1CC2(CC2)C[C@H]1C(=O)N[C@@H](C[C@@H]1CCNC1=O)C(=O)COC(F)(F)F)C(C)(C)C` [Compound 327, (R)-3,3-dimethyl-1-oxo-1-((S)-6-(((S)-3-oxo-1-((S)-2-oxopyrrolidin-3-yl)-4-(trifluoromethoxy)butan-2-yl)carbamoyl)-5-azaspiro[2.4]heptan-5-yl)butan-2-yl tert-butylcarbamate] stands 0.5 to 1 µM; under `CC(C)C[C@@H](OC(=O)NC(C)(C)C)C(=O)N1CC2(CC2)C[C@H]1C(=O)N[C@@H](C[C@@H]1CCNC1=O)C(=O)COC(F)(F)F` [Compound 328, (R)-4-methyl-1-oxo-1-((S)-6-(((S)-3-oxo-1-((S)-2-oxopyrrolidin-3-yl)-4-(trifluoromethoxy)butan-2-yl)carbamoyl)-5-azaspiro[2.4]heptan-5-yl)pentan-2-yl tert-butylcarbamate], less than 0.05 µM; under `CC(C)C[C@@H](OC(=O)NC(C)C)C(=O)N1CC2(CC2)C[C@H]1C(=O)N[C@@H](C[C@@H]1CCNC1=O)C(=O)COC(F)(F)F` [Compound 329, (R)-4-methyl-1-oxo-1-((S)-6-(((S)-3-oxo-l-((S)-2-oxopyrrolidin-3-yl)-4-(trifluoromethoxy)butan-2-yl)carbamoyl)-5-azaspiro[2.4]heptan-5-yl)pentan-2-yl isopropylcarbamate], less than 0.05 µM. The same measure, in the same setting: under `CC(C)C[C@@H](OC(=O)NC1CCCCC1)C(=O)N1CC2(CC2)C[C@H]1C(=O)N[C@@H](C[C@@H]1CCNC1=O)C(=O)COC(F)(F)F` [Compound 330, (R)-4-methyl-1-oxo-1-((S)-6-(((S)-3-oxo-l-((S)-2-oxopyrrolidin-3-yl)-4-(trifluoromethoxy)butan-2-yl)carbamoyl)-5-azaspiro[2.4]heptan-5-yl)pentan-2-yl cyclohexylcarbamate] stands less than 0.05 µM. On to `CC(C)C[C@@H](OC(=O)Nc1ccccc1)C(=O)N1CC2(CC2)C[C@H]1C(=O)N[C@@H](C[C@@H]1CCNC1=O)C(=O)COC(F)(F)F` [Compound 331, (R)-4-methyl-1-oxo-1-((S)-6-(((S)-3-oxo-l-((S)-2-oxopyrrolidin-3-yl)-4-(trifluoromethoxy)butan-2-yl)carbamoyl)-5-azaspiro[2.4]heptan-5-yl)pentan-2-yl phenylcarbamate], for which the EC50 is less than 0.05 µM.

In the case of `CC(C)C[C@@H](OC(F)F)C(=O)N1CC2(CC2)C[C@H]1C(=O)N[C@@H](C[C@@H]1CCNC1=O)C(=O)COC(F)(F)F` [Compound 333, (S)-5-((R)-2-(difluoromethoxy)-4-methylpentanoyl)-N—((S)-3-oxo-1-((S)-2-oxopyrrolidin-3-yl)-4-(trifluoromethoxy)butan-2-yl)-5-azaspiro[2.4]heptane-6-carboxamide], the EC50 is less than 0.05 µM. Still for that read-out and setting: the value for `CC(C)C[C@@H](OCC(C)(C)O)C(=O)N1CC2(CC2)C[C@H]1C(=O)N[C@@H](C[C@@H]1CCNC1=O)C(=O)COC(F)(F)F` [Compound 334, (S)-5-((R)-2-(2-hydroxy-2-methylpropoxy)-4-methylpentanoyl)-N-((S)-3-oxo-1-((S)-2-oxopyrrolidin-3-yl)-4-(trifluoromethoxy)butan-2-yl)-5-azaspiro[2.4]heptane-6-carboxamide] was 0.05 to 0.2 µM; that for `CC[C@@H](OC(F)(F)F)C(=O)N1C[C@H]2[C@@H]([C@H]1C(=O)N[C@@H](C[C@@H]1CCNC1=O)C(=O)COC(F)(F)F)C2(C)C` [Compound 335, (1R,2S,5S)-6,6-dimethyl-N-((S)-3-oxo-1-((S)-2-oxopyrrolidin-3-yl)-4-(trifluoromethoxy)butan-2-yl)-3-((R)-2-(trifluoromethoxy)butanoyl)-3-azabicyclo[3.1.0]-hexane-2-carboxamide] was less than 0.05 µM; that for `CC[C@@H](OC)C(=O)N1C[C@H]2[C@@H]([C@H]1C(=O)N[C@@H](C[C@@H]1CCNC1=O)C(=O)COC(F)(F)F)C2(C)C` [Compound 336, (1R,2S,5S)-3-((R)-2-methoxybutanoyl)-6,6-dimethyl-N—((S)-3-oxo-1-((S)-2-oxopyrrolidin-3-yl)-4-(trifluoromethoxy)butan-2-yl)-3-azabicyclo[3.1.0]hexane-2-carboxamide] was 0.05 to 0.2 µM. The same measure, in the same setting: the value for `CC[C@@H](OC)C(=O)N[C@@H](CC(C)C)C(=O)N[C@@H](C[C@@H]1CCNC1=O)C(=O)COC(F)(F)F` [Compound 337, (S)-2-((R)-2-methoxybutanamido)-4-methyl-N-((S)-3-oxo-1-((S)-2-oxopyrrolidin-3-yl)-4-(trifluoromethoxy)butan-2-yl)pentanamide] was 0.05 to 0.2 µM; that for `COC(CC(C)C)C(=O)N1CC2(CC2)C[C@H]1C(=O)N[C@@H](C[C@@H]1CCNC1=O)C(=O)COC(F)(F)F` (stereo partly drawn) [Compound 338, (6S)-5-(2-methoxy-4-methylpentanoyl)-N-((S)-3-oxo-1-((S)-2-oxopyrrolidin-3-yl)-4-(trifluoromethoxy)butan-2-yl)-5-azaspiro[2.4]heptane-6-carboxamide] was less than 0.05 µM; that for `CO[C@@H](CC(C)C)C(=O)N1CC2(CC2)C[C@H]1C(=O)N[C@@H](C[C@@H]1CCNC1=O)C(=O)COC(F)(F)F` [Compound 339, (S)-5-((S)-2-methoxy-4-methylpentanoyl)-N-((S)-3-oxo-1-((S)-2-oxopyrrolidin-3-yl)-4-(trifluoromethoxy)butan-2-yl)-5-azaspiro[2.4]heptane-6-carboxamide] was 0.05 to 0.2 µM. On the same count and under the same terms, the value for `COC(OC)C(=O)N1CC2(CC2)C[C@H]1C(=O)N[C@@H](C[C@@H]1CCNC1=O)C(=O)COC(F)(F)F` [Compound 340, (S)-5-(2,2-dimethoxyacetyl)-N—((S)-3-oxo-1-((S)-2-oxopyrrolidin-3-yl)-4-(trifluoromethoxy)butan-2-yl)-5-azaspiro[2.4]heptane-6-carboxamide] was 0.2 to 0.5 µM. `CC(C)C[C@H](NC(=O)[C@H](O)C(C)(C)C)C(=O)N[C@@H](C[C@@H]1CCNC1=O)C(=O)COC(F)(F)F` [Compound 341, (S)-2-((R)-2-hydroxy-3,3-dimethylbutanamido)-4-methyl-N-((S)-3-oxo-1-((S)-2-oxopyrrolidin-3-yl)-4-(trifluoromethoxy)butan-2-yl)pentanamide]: the EC50 is 0.05 to 0.2 µM. Still for that read-out and setting: the value for `CC(C)(C)[C@@H](O)C(=O)N1CC2(CC2)C[C@H]1C(=O)N[C@@H](C[C@@H]1CCNC1=O)C(=O)COC(F)(F)F` [Compound 342, (S)-5-((R)-2-hydroxy-3,3-dimethylbutanoyl)-N-((S)-3-oxo-1-((S)-2-oxopyrrolidin-3-yl)-4-(trifluoromethoxy)butan-2-yl)-5-azaspiro[2.4]heptane-6-carboxamide] was 0.05 to 0.2 µM; that for `CC(C)(C)[C@@H](O)C(=O)N1C[C@H]2[C@@H]([C@H]1C(=O)N[C@@H](C[C@@H]1CCNC1=O)C(=O)COC(F)(F)F)C2(C)C` [Compound 343, (1R,2S,5S)-3-((R)-2-hydroxy-3,3-dimethylbutanoyl)-6,6-dimethyl-N-((S)-3-oxo-1-((S)-2-oxopyrrolidin-3-yl)-4-(trifluoromethoxy)butan-2-yl)-3-azabicyclo[3.1.0]-hexane-2-carboxamide] was 0.05 to 0.2 µM; that for `CC(C)(C)[C@H](O)C(=O)N1CC2(CC2)C[C@H]1C(=O)N[C@@H](C[C@@H]1CCNC1=O)C(=O)COC(F)(F)F` [Compound 344, (S)-5-((S)-2-hydroxy-3,3-dimethylbutanoyl)-N-((S)-3-oxo-1-((S)-2-oxopyrrolidin-3-yl)-4-(trifluoromethoxy)butan-2-yl)-5-azaspiro[2.4]heptane-6-carboxamide] was less than 0.05 µM.

Regarding `CC(C)(C)[C@H](O)C(=O)N1C[C@H]2[C@@H]([C@H]1C(=O)N[C@@H](C[C@@H]1CCNC1=O)C(=O)COC(F)(F)F)C2(C)C` [Compound 345, (1R,2S,5S)-3-((S)-2-hydroxy-3,3-dimethylbutanoyl)-6,6-dimethyl-N-((S)-3-oxo-1-((S)-2-oxopyrrolidin-3-yl)-4-(trifluoromethoxy)butan-2-yl)-3-azabicyclo-[3.1.0]hexane-2-carboxamide], the EC50 is less than 0.05 µM.

For `CC(C)(C)CC(O)C(=O)N1CC2(CC2)C[C@H]1C(=O)N[C@@H](C[C@@H]1CCNC1=O)C(=O)COC(F)(F)F` (stereo partly drawn) [Compound 346, (6S)-5-(2-hydroxy-4,4-dimethylpentanoyl)-N-((S)-3-oxo-1-((S)-2-oxopyrrolidin-3-yl)-4-(trifluoromethoxy)butan-2-yl)-5-azaspiro[2.4]heptane-6-carboxamide], the 50% effective concentration (EC50) is less than 0.05 µM.

Staying with this assay, now noted: Severe acute respiratory syndrome coronavirus 2, HeLa-ACE2, 24 h; read-out: EC50, uM (Hela).
Regarding `CCNC(=O)O[C@@H](C(=O)N1CC2(CC2)C[C@H]1C(=O)N[C@@H](C[C@@H]1CCNC1=O)C(=O)COC(F)(F)F)C(C)(C)C` [Compound 332, (R)-3,3-dimethyl-1-oxo-l-((S)-6-(((S)-3-oxo-1-((S)-2-oxopyrrolidin-3-yl)-4-(trifluoromethoxy)butan-2-yl)carbamoyl)-5-azaspiro[2.4]heptan-5-yl)butan-2-yl ethylcarbamate], the EC50 fell in the range of 0.5 to 1 µM.
